{
  "source": "patent US7183061B2",
  "about": "“Method of expressing Heliothis ecdysone receptor fusion protein” (Syngenta Limited, priority 1996, dated 2007)",
  "system": "glucocorticoid receptor",
  "assay": "Maize protoplast GUS reporter assay with pMF6HR1PAT (GR) and p221.9GRE6",
  "format": "cell-based, Human",
  "details": "maize protoplasts, reporter plus effector, concentration not given",
  "from_the_text": "The glucocorticoid receptor DNA for the Maize transient expression construct was produced via the polymerase chain reaction (PCR) of Human Fibrosarcoma cDNA (HT1080 cell line, ATCC#CC1121) library (Clontech see Hollenberg et al., 1985). The PCR approach taken was to amplify the 2.7 kb fragment encoding the glucocorticoid receptor in two segments. The first segment entails the N-terminal end up to and including the DNA binding domain while the second fragment begins with the hinge region (amino acid 500) thought to the end of the reading frame. Thus, the PCR primer for the N-terminal end segment was designed to contain an EcoRI site and the Kozak consensus sequence for translation initiation: GREcoRI 5′ […] 3′ (SEQ ID NO: 32).\nThe 2.7 kb EcoRI fragment was subcloned into the vector pMF6PAT EcoRI resulting in pMF6HGIPAT (FIG. 10).\nTwo reporter plasmids were made by inserting the into p221.9 or p221.10 BamHI/HindIII vectors two pairs or oligonucleotides containing six copies of the glucocorticoid response element (GRE). […]\nProtoplasts were isolated from a maize suspension culture derived from BE70×A188 embryogenic callus material, which was maintained by subculturing twice weekly in MS0.5mod. […] The pellet was resuspended in wash buffer and the protoplasts were counted. […] Protein concentrations of tissue homogenates were determined by the Bio-Rad protein assay (Bradford, 1976). […]",
  "data": [
    {"molecule": "CC(C)CC[C@@H](O)[C@](C)(O)[C@H]1CC[C@@]2(O)C3=CC(=O)[C@]4(O)C[C@@H](O)[C@@H](O)C[C@]4(C)[C@H]3[C@H](O)C[C@]12C", "note": "[Muristerone A]", "values": [
      {"measurement": "induced levels of expression", "value": "does not lead to induced levels of expression"}
    ]}
  ]
}
